Source: US20190225985A1, “Enhancing Bacillus Thuringiensis CRY Insecticidal Activity With a Chaperone” (Universidad Nacional Autónoma de México, priority 2016, published 2019)
Like-named read-outs stand apart in the source and are kept apart here.

Legend:
[1] = tested on: Plutella xylostella larvae; conditions: soluble protoxin; taken from reference 16; cited from earlier work
[2] = tested on: M. sexta brush border membrane vesicles (BBMV); assay: Oligomerization of Cry1Ab with brush border membrane vesicles in the presence of Hsp90, Western blot; type: biochemical
Experimental: Oligomerization of Cry1Ab. Brush border membrane vesicles (BBMV) were prepared using M. sexta midgut tissues from third instar larvae by the magnesium precipitation method without protease inhibitors^21 and suspended in 50 mM Na2CO3, pH 9, and stored at −70° C. until used. The BBMV protein concentrations were determined with the Lowry DC protein assay (BioRad, Hercules, Calif.) using bovine serum albumin as a standard. Fifteen μg or 30 μg of Hsp90 were incubated with 1 μg Cry1Ab toxin or protoxin in the presence of Hsp90 buffer. Control samples contained Cry1Ab proteins without Hsp90. Cry1Ab oligomerization was analyzed after incubation of 1 μg of Cry1Ab toxin or protoxin with 10 μg of BBMV protein for 1 h at 37° C. in a total volume of […] alkaline buffer, pH 10.5. BBMV were recovered by a 30 min centrifugation at 60,000 rpm at 4° C. The pellet was washed once with 100 μl of alkaline buffer by centrifugation, and suspended in 60 μl of the same buffer. Laemmli sample buffer 4X was added and the sample was incubated three min at 50° C. Samples were separated in 8% SDS-PAGE, electro transferred to PVDF membrane and Cry1Ab proteins were detected by Westernblot as described above.

[3] = tested on: Hsp90; assay: ELISA binding assay of Hsp90 to Cry toxins; design: species or system Plutella xylostella; conditions: for binding of Hsp90 to toxin (ELISA): coated protoxin, serial dilutions of Hsp90, FIG. 4A-E
Experimental: (§1) The binding of Hsp90 or Hsp70 to Cry1Ab and Cry1AbMod protoxins was analyzed by ELISA binding assays. […] More specifically, 50 μl of 40 nM of each protoxin in binding buffer (100 mM carbonate pH 9.5) was used to coat ELISA 96 well plates. ELISA plates were incubated overnight at 4° C. After removing the protoxin solution, the plate was blocked with blocking-buffer (1% BSA in PBS 1X) for 1 hr at room temperature. […] The plate was washed three times with washing buffer (PBS 1X) and then 50 μl of a 1/10,000 dilution of anti-polyHistidine-Peroxidase conjugate (Sigma-Aldrich) was added to each well and incubated for 1 hr at 30° C. The reaction was developed with 50 μl of ortophenylenediamine in a substrate buffer (100 mM K3PO4; pH 5) in a final concentration of 1 mg/ml and […] of peroxide oxide. The reaction was stopped by adding 25 μl of HCl, 6N. The plates were read on microtiter plate reader at OD 490 nm.
(§2) Data represent means of 8 wells and each experiment was repeated two times. The statistical calculations (mean and standard deviation) and graphics were performed using the Microsoft Excel Program.

[4] = tested on: Plutella xylostella larvae; type: in vivo; conditions: for effect of Hsp90 on toxicity: protoxin at about 10% mortality, increasing Hsp90, FIG. 1
Experimental: The hsp90 and hsp70 genes from the lepidopteran insect Plutella xylostella and the GroEL gene from Alcaligenes faecalis were cloned into an expression vector for production in E. coli cells. P. xylostella is a pest of cruciferous crops worldwide, is susceptible to Cry1A toxins and has evolved resistance to Cry1Ac and Cry1Ab in field conditions^18. To determine the effect of Hsp90, Hsp70 or GroEL on Cry1Ab and Cry1Ac toxicity, bioassays were performed against P. xylostella larvae using a protoxin concentration that would produce around 10% mortality in the presence of increasing amounts of Hsp90, Hsp70 or GroEL.
Bioassays were performed with 24 third instar larvae of P. xylostella using 24 wells plates. Larval diet was surface contaminated with different concentrations of Cry1A protoxin plus Hsp90 or Hsp70 or protoxin alone without any chaperone. The samples containing protoxin and Hsp90 were previously incubated for 30 min at 37° C. in Hsp90 buffer (1 mM Mg, 1 mMATP, in PBS1X). Each experiment was performed in triplicate (72 larvae per treatment). Mortality was assessed after 7 days. The statistical calculations (mean and standard deviation) and graphics were performed using the Microsoft Excel Program. Negative control diet was surface contaminated with the highest Hsp90 concentration without Cry1A protoxin to test the possible toxic effect of the protein or the buffer itself.
In the case where the LC50 was calculated, increasing concentrations of protoxin plus Hsp90 (in the protein relation indicated in the table) was used to surface contaminate diet in 24-well plates. These experiments were performed in triplicate. Mortality was assessed after 7 days and the effective dose was calculated using Probit analysis (Polo-PC LeOra Software).

[5] = tested on: Hsp70; assay: ELISA binding assay of Hsp70 to Cry toxins; design: species or system Plutella xylostella; conditions: coated protoxin, different concentrations of Hsp70, FIG. 5
Experimental: as §1, §2

[6] = excess of 500 μg per well of Hsp90

Sequence of Hsp90 (as listed by the source): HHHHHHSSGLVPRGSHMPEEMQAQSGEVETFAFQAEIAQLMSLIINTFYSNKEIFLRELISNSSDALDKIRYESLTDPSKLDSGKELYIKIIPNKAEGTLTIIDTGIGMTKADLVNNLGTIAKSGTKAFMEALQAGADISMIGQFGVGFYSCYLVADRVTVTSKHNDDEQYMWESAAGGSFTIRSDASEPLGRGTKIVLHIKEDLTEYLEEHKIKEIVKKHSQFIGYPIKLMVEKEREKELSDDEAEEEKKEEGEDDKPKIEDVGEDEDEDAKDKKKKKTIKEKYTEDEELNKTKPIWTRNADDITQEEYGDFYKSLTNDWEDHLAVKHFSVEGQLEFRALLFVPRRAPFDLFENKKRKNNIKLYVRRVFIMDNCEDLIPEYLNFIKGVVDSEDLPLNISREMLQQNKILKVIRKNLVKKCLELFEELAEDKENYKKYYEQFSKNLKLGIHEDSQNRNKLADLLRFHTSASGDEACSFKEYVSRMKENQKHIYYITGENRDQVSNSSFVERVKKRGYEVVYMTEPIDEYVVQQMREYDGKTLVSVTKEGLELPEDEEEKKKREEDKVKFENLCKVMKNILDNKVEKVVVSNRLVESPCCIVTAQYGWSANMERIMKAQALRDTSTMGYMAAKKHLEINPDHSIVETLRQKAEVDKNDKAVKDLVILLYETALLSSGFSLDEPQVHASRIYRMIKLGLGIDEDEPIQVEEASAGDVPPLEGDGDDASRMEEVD
Sequence of Hsp70 (as listed by the source): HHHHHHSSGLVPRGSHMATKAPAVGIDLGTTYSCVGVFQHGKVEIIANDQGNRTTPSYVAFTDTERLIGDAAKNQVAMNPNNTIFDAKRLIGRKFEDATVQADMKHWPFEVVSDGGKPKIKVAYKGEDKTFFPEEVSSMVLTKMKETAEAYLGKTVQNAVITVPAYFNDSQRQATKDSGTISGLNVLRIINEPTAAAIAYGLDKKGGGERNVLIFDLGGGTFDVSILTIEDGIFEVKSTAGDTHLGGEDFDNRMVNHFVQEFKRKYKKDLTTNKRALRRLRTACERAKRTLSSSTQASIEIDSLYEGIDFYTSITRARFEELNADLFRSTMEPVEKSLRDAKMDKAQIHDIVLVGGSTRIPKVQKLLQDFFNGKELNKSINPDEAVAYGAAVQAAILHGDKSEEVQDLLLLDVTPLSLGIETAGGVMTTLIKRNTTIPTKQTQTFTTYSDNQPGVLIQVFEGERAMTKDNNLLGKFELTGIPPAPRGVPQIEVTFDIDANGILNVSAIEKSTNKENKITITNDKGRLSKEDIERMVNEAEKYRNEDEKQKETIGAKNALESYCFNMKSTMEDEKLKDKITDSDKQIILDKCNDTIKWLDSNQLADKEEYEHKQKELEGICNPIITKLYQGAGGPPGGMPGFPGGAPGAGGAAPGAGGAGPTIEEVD

Row | Substance | LC50 [1] | yield of the 250 kDa Cry1Ab oligomer ([2]; from Cry1Ab protoxin) | yield of the 250 kDa Cry1Ab oligomer ([2]; from Cry1Ab toxin) | binding of Hsp90 to toxin (ELISA) [3] | mortality ([4]; 200 ng per well of Hsp90) | mortality [4, 6] | effect of Hsp90 on toxicity [4] | binding of Hsp70 to toxin (ELISA) [5] | binding of Hsp90 to Cry1Ac ([3]; 100 nM Hsp90, absence of ATP (FIG. 4F lane 2)) | mortality ([4]; 100 ng per well of Hsp70) | mortality ([4]; GroEL 100 ng per well) | mortality ([4]; excess of 200 μg per well of GroEL) | mortality ([4]; excess of 200 μg per well of Hsp70) | effect of GroEL on toxicity ([4]; increasing GroEL, FIG. 3) | effect of Hsp70 on toxicity ([4]; increasing Hsp70, FIG. 2)
1 | Cry1Ab | 4.69 ng/well | significantly enhanced | significantly enhanced | bound | 80% | 100% | enhanced in an Hsp90 concentration dependent manner | bound |  |  |  |  |  |  | 
2 | Cry1Ac | 0.71 ng/well |  |  | bound | 80% | 100% | enhanced in an Hsp90 concentration dependent manner | bound | significantly reduced | 80% | 80% | 100% | 100% | enhanced in concentration dependent manner | enhanced in an Hsp70 concentration dependent manner
